Converted amounts (≈) assume the structure as drawn. Read-outs that look alike come from different tables or passages of the source.
Tests used:
Type in all cases: cell-based, Streptococcus pneumoniae
[1] = tested on: S Pneumoniae N1387; experiment: MIC against resistant S Pneumoniae strain N1387
[2] = tested on: S Pneumoniae 14319; experiment: MIC against resistant S Pneumoniae strain 14319
[3] = tested on: S Pneumoniae 410101; experiment: MIC against resistant S Pneumoniae strain 410101
[4] = Streptococcus pneumoniae, read-out: MIC

| MIC [1, 4] [µg/mL] | MIC [2, 4] [µg/mL] | MIC [3, 4] [µg/mL] | MIC [1] [µg/mL] | MIC [2] [µg/mL] | MIC [3] [µg/mL] | Structure (SMILES) |
| --- | --- | --- | --- | --- | --- | --- |
| 2 (≈ 5.47 µM) | 4 (≈ 10.9 µM) | 4 (≈ 10.9 µM) | – | – | – | CC1(C)S[C@@H]2[C@H](NC(=O)[C@H](N)c3ccc(O)cc3)C(=O)N2[C@H]1C(=O)O [Amoxycillin] |
| – | – | – | 2 (≈ 5.98 µM) | 8 (≈ 23.9 µM) | 4 (≈ 12 µM) | CC1(C)S[C@@H]2[C@H](NC(=O)Cc3ccccc3)C(=O)N2[C@H]1C(=O)O [Penicillin G] |

— patent US6726908B2, “Pharmaceutical formulation” (SmithKline Beecham p.l.c., priority 1995, dated 2004)
